Measured values from patent US9334268B2, “4-amino-imidazoquinoline compounds” (Hoffmann-La Roche Inc., priority 2014, dated 2016).
Counter-ions that a name gives are not always drawn.

Legend:
human TLR7 = human TLR7 (Homo sapiens (Human), UniProt Q9NYK1); assay: HEK-Blue human TLR7 SEAP reporter assay; assay type: cell-based; conditions: for EC50: HEK-Blue human TLR7 cells, NF-κB-regulated SEAP reporter, stimulation for 24 hr
Experimental: (§1) For TLR8 and TLR7 activity testing, HEK-Blue human TLR8 or TLR7 cells, respectively, (Invivogen, San Diego, Calif., USA) transfected with a SEAP reporter (secreted embryonic alkaline phosphatase) construct were used, in which the reporter expression is regulated by the NF-κB promoter upon stimulation for 24 hr. The reporter activity was determined using Quanti Blue kit (Invivogen, San Diego, Calif., USA) at a wavelength of 640 nm.
(§2) EC50 values were determined using Activity Base analysis (ID Business Solution, Limited).

human TLR8 = human TLR8 (Homo sapiens (Human), UniProt Q9NR97); assay: HEK-Blue human TLR8 SEAP reporter assay; assay type: cell-based; conditions: HEK-Blue human TLR8 cells, NF-κB-regulated SEAP reporter, stimulation for 24 hr
Experimental: as §1, §2

Chain of human TLR7 (Q9NYK1 27-1049): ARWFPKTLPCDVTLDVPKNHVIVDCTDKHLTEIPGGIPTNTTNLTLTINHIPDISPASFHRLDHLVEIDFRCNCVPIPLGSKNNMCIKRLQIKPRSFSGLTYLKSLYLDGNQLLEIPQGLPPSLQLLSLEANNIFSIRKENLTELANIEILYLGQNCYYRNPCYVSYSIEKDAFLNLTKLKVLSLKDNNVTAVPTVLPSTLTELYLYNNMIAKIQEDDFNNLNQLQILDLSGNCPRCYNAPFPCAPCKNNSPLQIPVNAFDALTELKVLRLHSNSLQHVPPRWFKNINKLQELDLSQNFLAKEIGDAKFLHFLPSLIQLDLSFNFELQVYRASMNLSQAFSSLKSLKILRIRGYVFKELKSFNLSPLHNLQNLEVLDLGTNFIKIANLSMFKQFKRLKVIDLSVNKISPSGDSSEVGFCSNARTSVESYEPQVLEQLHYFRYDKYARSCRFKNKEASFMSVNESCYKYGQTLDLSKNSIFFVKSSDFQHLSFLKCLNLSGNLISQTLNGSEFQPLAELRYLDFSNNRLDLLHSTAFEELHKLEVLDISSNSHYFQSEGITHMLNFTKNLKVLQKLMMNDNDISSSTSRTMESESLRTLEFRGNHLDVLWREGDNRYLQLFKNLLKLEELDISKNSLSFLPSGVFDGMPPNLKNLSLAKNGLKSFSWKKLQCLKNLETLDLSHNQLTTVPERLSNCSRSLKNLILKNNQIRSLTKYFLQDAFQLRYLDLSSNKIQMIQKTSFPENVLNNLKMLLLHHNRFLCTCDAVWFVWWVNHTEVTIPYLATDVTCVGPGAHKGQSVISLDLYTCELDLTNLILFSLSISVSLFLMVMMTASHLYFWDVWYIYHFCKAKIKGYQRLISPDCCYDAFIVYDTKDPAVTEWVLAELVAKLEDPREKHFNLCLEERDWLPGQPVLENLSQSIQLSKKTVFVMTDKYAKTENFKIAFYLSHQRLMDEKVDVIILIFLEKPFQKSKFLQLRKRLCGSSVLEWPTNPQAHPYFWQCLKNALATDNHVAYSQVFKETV
Chain of human TLR8 (Q9NR97 27-1041): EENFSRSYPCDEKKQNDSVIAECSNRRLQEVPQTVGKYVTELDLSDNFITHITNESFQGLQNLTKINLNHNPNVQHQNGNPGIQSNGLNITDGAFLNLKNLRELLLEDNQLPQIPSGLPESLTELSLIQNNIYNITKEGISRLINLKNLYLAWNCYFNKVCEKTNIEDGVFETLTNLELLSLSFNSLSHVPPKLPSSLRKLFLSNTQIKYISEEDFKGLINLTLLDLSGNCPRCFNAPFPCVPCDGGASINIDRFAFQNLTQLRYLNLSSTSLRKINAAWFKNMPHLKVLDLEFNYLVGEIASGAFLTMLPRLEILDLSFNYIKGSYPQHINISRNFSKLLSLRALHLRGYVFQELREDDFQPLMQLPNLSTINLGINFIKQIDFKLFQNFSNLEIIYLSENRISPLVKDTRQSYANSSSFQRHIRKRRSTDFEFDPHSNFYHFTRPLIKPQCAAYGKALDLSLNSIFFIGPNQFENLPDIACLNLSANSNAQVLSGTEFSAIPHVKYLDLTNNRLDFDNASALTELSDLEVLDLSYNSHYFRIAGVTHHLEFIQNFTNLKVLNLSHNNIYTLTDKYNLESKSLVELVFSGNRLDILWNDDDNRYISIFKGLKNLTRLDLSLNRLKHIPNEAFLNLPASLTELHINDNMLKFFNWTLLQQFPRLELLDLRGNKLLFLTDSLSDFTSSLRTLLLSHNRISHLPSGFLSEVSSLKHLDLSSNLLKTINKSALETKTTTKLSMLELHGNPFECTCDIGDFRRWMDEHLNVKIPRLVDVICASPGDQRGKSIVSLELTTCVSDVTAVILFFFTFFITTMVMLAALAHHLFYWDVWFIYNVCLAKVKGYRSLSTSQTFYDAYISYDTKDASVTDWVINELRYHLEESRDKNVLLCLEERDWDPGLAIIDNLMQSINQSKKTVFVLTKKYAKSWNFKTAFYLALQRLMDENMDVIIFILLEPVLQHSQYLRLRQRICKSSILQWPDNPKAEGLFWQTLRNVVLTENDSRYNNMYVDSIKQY

EC50 (human TLR7) [nM] | cellular potency at TLR7 (human TLR7; statement in words, compared with resiquimod) | EC50 (human TLR8) [nM] | SMILES
> 100000 | do not show the required activity | 49000 | CCOCc1nc2c(N)nc3ccccc3c2n1CCOCCN [1-(2-(2-Aminoethoxy)ethyl)-2-(ethoxymethyl)-1H-imidazo[4,5-c]quinolin-4-amine, reference compound]
60 |  | 580 | CCOCc1nc2c(N)nc3ccccc3c2n1CC(C)(C)OCCN [Example 1, 1-(2-(2-Aminoethoxy)-2-methylpropyl)-2-(ethoxymethyl)-1H-imidazo[4,5-c]quinolin-4-amine]
50 |  | 80 | CCOCc1nc2c(N)nc3ccccc3c2n1CC(C)(C)OC(=O)CN [Example 2, 1-(4-Amino-2-(ethoxymethyl)-1H-imidazo[4,5-c]quinolin-1-yl)-2-methylpropan-2-yl 2-aminoacetate]
223 |  | 35000 | CCOCc1nc2c(N)nc3ccccc3c2n1CC(C)(C)OCCNC(=O)c1cccnc1 [Example 3, N-(2-(1-(4-Amino-2-(ethoxymethyl)-1H-imidazo[4,5-c]quinolin-1-yl)-2-methylpropan-2-yloxy)ethyl)nicotinamide]
27 |  |  | CCOCc1nc2c(N)nc3ccccc3c2n1CC(C)(C)OCCNC(C)=O [Example 4, N-(2-(1-(4-Amino-2-(ethoxymethyl)-1H-imidazo[4,5-c]quinolin-1-yl)-2-methylpropan-2-yloxy)ethyl)acetamide]
900 |  | 10500 | CCOCc1nc2c(N)nc3ccccc3c2n1CC(C)(C)OCCNCCCO [Example 5, 3-(2-(1-(4-Amino-2-(ethoxymethyl)-1H-imidazo[4,5-c]quinolin-1-yl)-2-methylpropan-2-yloxy)ethylamino)propan-1-ol]
195 |  | 2900 | CCOCc1nc2c(N)nc3ccccc3c2n1CC(C)(C)OCCNC(=O)CCCCCNC(=O)OC(C)(C)C [Example 6, tert-Butyl 6-(2-(1-(4-amino-2-(ethoxymethyl)-1H-imidazo[4,5-c]quinolin-1-yl)-2-methylpropan-2-yloxy)ethylamino)-6-oxohexylcarbamate]
139 |  | 1080 | CCOCc1nc2c(N)nc3cc(/C=C/C(=O)OCC)ccc3c2n1CC(C)(C)OCCN [Example 7, (E)-Ethyl 3-(4-amino-1-(2-(2-aminoethoxy)-2-methylpropyl)-2-(ethoxymethyl)-1H-imidazo[4,5-c]quinolin-7-yl)acrylate]
134 |  | 256 | CCOCc1nc2c(N)nc3cc(CCC(=O)OCC)ccc3c2n1CC(C)(C)OCCN [Example 8, Ethyl 3-(4-amino-1-(2-(2-aminoethoxy)-2-methylpropyl)-2-(ethoxymethyl)-1H-imidazo[4,5-c]quinolin-7-yl)propanoate hydrochloride]
152 |  | 2700 | CCCCCc1nc2c(N)nc3ccccc3c2n1CC(C)(C)OCCN [Example 10, 1-(2-(2-Aminoethoxy)-2-methylpropyl)-2-pentyl-1H-imidazo[4,5-c]quinolin-4-amine]
130 |  | 2900 | CCOCc1nc2c(N)nc3cc(Br)ccc3c2n1CC(C)(C)OCCN [Example 11, 1-(2-(2-Aminoethoxy)-2-methylpropyl)-7-bromo-2-(ethoxymethyl)-1H-imidazo[4,5-c]quinolin-4-amine hydrochloride]

SMILES | EC50 (human TLR7) [nM] | cellular potency at TLR7 (human TLR7; statement in words, compared with resiquimod) | EC50 (human TLR8) [nM]
CCOCc1nc2c(N)nc3cc(CCC(=O)OCC)ccc3c2n1CC(C)(C)OC(=O)CN [Example 9, Ethyl 3-(4-amino-1-(2-(2-aminoacetoxy)-2-methylpropyl)-2-(ethoxymethyl)-1H-imidazo[4,5-c]quinolin-7-yl)propanoate] | 55 |  | 54
